In patent US20180312493A1, “Antibiotic Compounds, Pharmaceutical Formulations Thereof And Methods And Uses Therefor” (Simon Fraser University, priority 2015, published 2018) one finds IC50 and MIC data, which are given here for four compounds.

Experiment [1] addresses T1, MRSA Pyk (Staphylococcus aureus, UniProt Q6GG09).
T1 construct: made in house; host or cells: E. coli BL-21 (DE3)
Put plainly: MRSA pyruvate kinase (PK) activity, continuous LDH-coupled assay. Format: biochemical, methicillin resistant S. aureus (MRSA252). In short, it runs like this: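 His-tagged MRSA PK (strain Sanger 252) and human PK isoforms expressed in E. coli BL-21 (DE3) and Ni-NTA purified, used at 15 nM in an LDH-coupled assay following NADH oxidation at 340 nm, 30° C, up to 5 min, ≤1% DMSO. IC50 from four-parameter variable-slope fit; Ki with PEP 2-20 mM, ADP fixed 2 mM, inhibitor 0-400 nM.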

The test system of experiment [2] is VRE#2 (2010A). Kind of experiment: In vitro susceptibility, broth microdilution (MIC). Format: cell-based, vancomycin resistant Enterococci. As to conditions: VRE#2 (2010A); read-out: Antimicrobial activity (MIC) VRE#2. In short, it runs like this: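 MIC determined by CLSI 2-fold broth microdilution in cation-adjusted Mueller–Hinton broth at ~2.5×10^5 CFU/ml, final compound 0.031–64 μg/ml, 18–24 h at 37 °C. MIC is the lowest concentration giving complete growth inhibition by background-corrected OD600 versus compound-free wells; duplicate or triplicate wells, replicated at least twice.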
Background: Broth dilution looks for growth in wells or tubes with falling amounts of substance.

Each structure is given as a SMILES string. Converted amounts (≈) assume the structure as drawn.

T1 sequence (Q6GG09 whole entry): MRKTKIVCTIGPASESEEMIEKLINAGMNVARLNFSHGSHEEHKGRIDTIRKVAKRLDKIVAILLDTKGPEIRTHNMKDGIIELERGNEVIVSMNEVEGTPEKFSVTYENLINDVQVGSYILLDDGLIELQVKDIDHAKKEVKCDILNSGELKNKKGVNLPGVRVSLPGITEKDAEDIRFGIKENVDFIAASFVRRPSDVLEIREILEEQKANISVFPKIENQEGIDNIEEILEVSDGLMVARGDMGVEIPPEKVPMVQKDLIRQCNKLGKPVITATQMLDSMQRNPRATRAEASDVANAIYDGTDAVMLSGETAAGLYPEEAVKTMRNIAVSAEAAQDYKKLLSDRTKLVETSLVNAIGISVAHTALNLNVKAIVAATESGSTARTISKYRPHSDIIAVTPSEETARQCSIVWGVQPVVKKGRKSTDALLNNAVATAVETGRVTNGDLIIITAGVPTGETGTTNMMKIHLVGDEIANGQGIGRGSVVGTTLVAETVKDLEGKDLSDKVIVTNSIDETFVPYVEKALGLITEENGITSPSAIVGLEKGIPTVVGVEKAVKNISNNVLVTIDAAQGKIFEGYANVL

`NCCOc1cc2[nH]c(-c3cc4ccc(Br)cc4[nH]3)cc2cc1Cl` [Compound 201, 2-((6′-Bromo-5-chloro-1H,1′H-[2,2′-biindol]-6-yl)oxy)ethan-1-amine] had an IC50 in experiment [1] of less than 100 nM. The MIC in experiment [2] came out at 4 µg/mL (≈ 9.88 µM). The matching figures for `NCCNC(=O)c1c(-c2cc3cc(Cl)ccc3[nH]2)[nH]c2cc(Br)ccc12` [Compound 206, N-(2-Aminoethyl)-6-bromo-5′-chloro-1H,1′H-[2,2′-biindole]-3-carboxamide]: less than 100 nM and 4 µg/mL (≈ 9.27 µM). The matching figures for `C[N+](C)(C)CCON=C(c1c(-c2cc3cc(Cl)ccc3[nH]2)[nH]c2cc(Br)ccc12)C(F)(F)F` (racemic) [Compound 221, 2-(((1-(6-Bromo-5′-chloro-1H,1′H-[2,2′-biindol]-3-yl)-2,2,2-trifluoroethylidene)amino)oxy)-N,N,N-trimethylethan-1-aminium Iodide]: less than 100 nM and 2 µg/mL. For `CN(C)CCOC(=O)c1c(/C=C/c2ccc(Cl)cc2)[nH]c2cc(Br)ccc12` [Compound 60, (E)-2-(Dimethylamino)ethyl 6-bromo-2-(4-chlorostyryl)-1H-indole-3-carboxylate], the IC50 in experiment [1] is less than 100 nM.

Broadly, the IC50 is the midpoint of a concentration-inhibition curve. High values mean weaker potency, low ones greater potency. Usually MIC stands for the lowest concentration found to suppress growth.
